Experiments:
EWS-FLI1 mRNA = experiment: Relative mRNA expression (qRT-PCR) of EWS-FLI1 in TC-32 cells; assay type: cell-based; conditions: 6 and 12 h treatments at GI50
Protocol: TC-32 cells were seeded in 6-well plates at a density of 300,000 cells/well. […] After 6 and 12 h treatments media was removed. Cells were washed with DPBS and 500 μL of 0.05% Trypsin with 0.53 mM EDTA (Corning, Corning, N.Y.) was added. After a 2-3 min incubation, cells detached from the plate and 1 mL of fresh RPMI media was immediately added. Cells were collected in 1.5 mL tubes on ice and centrifuged to a pellet at 1200× g for 5 min. Supernatant was removed and cell pellets were lysed with 600 μL of RLT lysis buffer (Qiagen, Hilden, Germany). Lysates were centrifuged through QIAshredder inserts for complete cell disruption (Qiagen, Hilden, Germany). RNeasy mini spin columns were used to isolate pure RNA (Qiagen, Hilden, Germany). RNA concentrations were measured using NanoDrop 2000 Spectrometer (Thermo Fisher Scientific, Waltham, Mass.) and a 100 ng/μL stock solution was prepared. RNA (1 μg) was used to prepare cDNA with a MultiScribe reverse transcriptase (Thermo Fisher Scientific, Waltham, Mass.). qRT-PCR reactions were conducted using Maxima SYBR green Taq DNA Polymerase (Thermo Fisher Scientific, Waltham, Mass.). EpMotion5070 (Eppendorf, Hamburg, Germany) robot was used to mix reactions in 384 well plates and thermocycling was completed on a QuantStudio 7 Flex (Thermo Fisher Scientific, Waltham, Mass.). […]

[1] = test system: NR0B1 promoter (binding promoter of EWS-FLI1); experiment: NR0B1 promoter luciferase reporter assay in stably transfected TC-32 cells; assay type: cell-based; conditions: 12 h treatment
Excerpt: Full-length NR0B1 promoter sequence was PCR amplified using Q5 high-fidelity DNA polymerase (New England Biolabs, Ipswich, Mass.) from genomic DNA of TC-32 cells and cloned into the pGLUC-Basic 2 vector (New England Biolabs, Ipswich, Mass.). XhoI and KpnI restriction sites were incorporated into the primers. After restriction enzyme (New England Biolabs, Ipswich, Mass.) digest and purification by gel electrophoresis, the target amplicon was ligated into the pGLUC-Basic 2 vector using T4 DNA ligase (Thermo Fisher Scientific, Waltham, Mass.). Chemically competent TOP10 E. coli cells were used to propagate vectors under ampicillin selection (100 μg/mL) (Thermo Fisher Scientific, Waltham, Mass.). The resulting vectors were extracted and purified using GeneJET plasmid prep kit (Thermo Fisher Scientific, Waltham, Mass.). […]
Selected TC-32 cells, expressing either NR0B1 or CMV luciferase reporter vectors, were seeded in clear 96-well plates at a density of 10,000 cells/well. […] Lysates (80 μL) were transferred to a white luminescence plate. Luciferase substrate, either coelenterazine or D-luciferin (50 μL of 1× solution), for NR0B1 or CMV vectors, respectively, was added in a Glomax 96 microplate luminometer (Promega, Madison, Wis.) and luminescence was immediately measured. […] Luminescence results were normalized to cell viability.

[2] = test system: TC-32 (Ewing sarcoma, EWS-FLI1 Type 1) cell line; conditions: for TC-32 Ewing sarcoma EWS-FLI1 Type 1 GI50: 72 h growth inhibition, TC-32 cells; for GI50 ratio PC-3:TC-32: selectivity, GI50 in PC-3 over GI50 in TC-32
[3] = test system: TC-71 Ewing sarcoma cells (EWS-FLI1 Type 1); conditions: 72 h growth inhibition
[4] = test system: 5838 Ewing sarcoma cells (EWS-ERG); experiment: 72 h GI50 assay in 5838; conditions: for GI50: read-out: 5838 Ewing Sarcoma EWS-ERG GI50, 72 h growth inhibition, 5838 cells; for Ratio of median GI50 Non-Ewing sarcoma cell lines (cf Table 3):5838: selectivity for 5838 cells
[5] = test system: ES-8 Ewing sarcoma cells (EWS-FLI1 Type 2); experiment: 72 h GI50 assay in ES-8; conditions: read-out: ES-8 EWS-FLI1 Type 2 GI50; 72 h growth inhibition
HeLa cells = experiment: 72 h GI50 assay in HeLa; conditions: read-out: HeLa GI50; 72 h growth inhibition
A549 cells = experiment: 72 h GI50 assay in A549; conditions: read-out: A549 GI50; 72 h growth inhibition
[6] = test system: RD-ES Ewing sarcoma cells (EWS-FLI1 Type 2); experiment: 72 h GI50 assay in RD-ES; conditions: read-out: RD-ES EWS-FLI1 Type 2 GI50; 72 h growth inhibition
[7] = test system: A-673 Ewing sarcoma cells (EWS-FLI1 Type 1); experiment: 72 h GI50 assay in A-673; conditions: read-out: A-673 EWS-FLI1 Type 1 GI50; 72 h growth inhibition
DU 145 cells = experiment: 72 h GI50 assay in DU 145; conditions: read-out: DU 145 GI50; 72 h growth inhibition
PANC-1 cells = experiment: 72 h GI50 assay in PANC-1; conditions: read-out: PANC-1 GI50; 72 h growth inhibition
HCT 116 cells = experiment: 72 h GI50 assay in HCT 116; conditions: read-out: HCT 116 GI50; 72 h growth inhibition
[8] = test system: Ewing sarcoma cell lines (TC-32, 5838, RD-ES, TC-71, A-673, ES-2, ES-7, ES-8); experiment: Median GI50 in panel of Ewing sarcoma cell lines; conditions: for Ratio of Median GI50 non-Ewing sarcoma:Ewing sarcoma (Selectivity Index): median GI50 non-Ewing panel over Ewing panel; for GI50: read-out: Median GI50 in Ewing sarcoma cell lines, median over 8 Ewing sarcoma cell lines, 72 h; for Selectivity Index ratio Analogues:MTM (1): selectivity index relative to MTM (1)

Row | Structure (SMILES) | EWS-FLI1 mRNA expression (EWS-FLI1 mRNA) | NR0B1 promoter driven luciferase signal [1] | TC-32 Ewing sarcoma EWS-FLI1 Type 1 GI50 [2] [nM] | GI50 ratio PC-3:TC-32 [2] | TC-71 EWS-FLI1 Type 1 GI50 [3] [nM] | GI50 [4] [nM] | Ratio of median GI50 Non-Ewing sarcoma cell lines (cf Table 3):5838 [4] | GI50 [5] [nM] | GI50 (HeLa cells) [nM] | GI50 (A549 cells) [nM] | GI50 [6] [nM] | GI50 [7] [nM] | GI50 (DU 145 cells) [nM] | GI50 (PANC-1 cells) [nM] | GI50 (HCT 116 cells) [nM] | Ratio of Median GI50 non-Ewing sarcoma:Ewing sarcoma (Selectivity Index) [8] | GI50 [8] [nM] | Selectivity Index ratio Analogues:MTM (1) [8]
1 | COC(=O)C(Cc1c[nH]c2ccccc12)NC(=O)C(Cc1c[nH]c2ccccc12)NC(=O)C(OC)C1Cc2cc3cc(OC4CC(OC5CC(O)C(O)C(C)O5)C(O)C(C)O4)c(C)c(O)c3c(O)c2C(=O)C1OC1CC(OC2CC(OC3CC(C)(O)C(O)C(C)O3)C(O)C(C)O2)C(O)C(C)O1 (stereo not drawn) [Analogue 61, MTMSA-Trp-Trp] | decreased | decreased | 41 | 13.9 | 35 | 53 | 16.2 | 114 | 951 | 1400 | 57 | 364 | 246 | 640 | 198 | 15.6 | 55 | 10.4
2 | COC(=O)C(Cc1c[nH]c2ccccc12)NC(=O)C(Cc1ccccc1)NC(=O)C(OC)C1Cc2cc3cc(OC4CC(OC5CC(O)C(O)C(C)O5)C(O)C(C)O4)c(C)c(O)c3c(O)c2C(=O)C1OC1CC(OC2CC(OC3CC(C)(O)C(O)C(C)O3)C(O)C(C)O2)C(O)C(C)O1 (stereo not drawn) [Analogue 60, MTMSA-Phe-Trp] | decreased | decreased | 47 | 24.0 | 44 | 149 | 6.7 | 53 | 557 | 2850 | 50 | 168 | 400 | 574 | 449 | 19.1 | 52 | 12.7

Source: patent US11224609B2, “Mithramycin derivatives having increased selectivity and anti-cancer activity” (University of Kentucky Research Foundation, priority 2017, dated 2022)
